Measured values published in PubChem BioAssay AID248 (DTP/NCI, 2004).
Values joined by “and” are separate entries in the source; they are usually repeats but may differ in a detail not shown here. Equal entries are not always repeated. Toxic doses and inconclusive results are not listed. Cut-off read from the data, not from the text of the source: active = T/C of 150% or more; inactive = T/C below 125%.

Tested on: L1210 leukemia ip in BDF1 mice, survival T/C
Assay: NCI In Vivo Anticancer Drug Screen. Data for tumor model L1210 Leukemia (intraperitoneal) in B6D2F1 (BDF1) mice
Conditions: endpoint: mean survival time, higher = longer survival
In short: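 Transplantable tumor model; survival measured in treated vs vehicle control mice. Value = treated/control.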

[1] = dose: 100.0 mg/kg/injection, schedule: Q01DX001 (ip), vehicle: carboxymethylcellulose (CMC)
[2] = dose: 200.0 mg/kg/injection, schedule: Q01DX001 (ip), vehicle: carboxymethylcellulose (CMC)
[3] = dose: 400.0 mg/kg/injection, schedule: Q01DX001 (ip), vehicle: carboxymethylcellulose (CMC)
[4] = dose: 12.5 mg/kg/injection, schedule: Q01DX009 (ip), vehicle: saline
[5] = dose: 25.0 mg/kg/injection, schedule: Q01DX009 (ip), vehicle: saline
[6] = dose: 100.0 mg/kg/injection, schedule: Q01DX001 (ip), vehicle: saline
[7] = dose: 200.0 mg/kg/injection, schedule: Q01DX001 (ip), vehicle: saline
[8] = dose: 400.0 mg/kg/injection, schedule: Q01DX001 (ip), vehicle: saline
[9] = dose: 100.0 mg/kg/injection, schedule: Q04DX003 (ip), vehicle: Klucel (hydroxypropylcellulose) (HPC)
[10] = dose: 200.0 mg/kg/injection, schedule: Q04DX003 (ip), vehicle: Klucel (hydroxypropylcellulose) (HPC)
[11] = dose: 400.0 mg/kg/injection, schedule: Q04DX003 (ip), vehicle: Klucel (hydroxypropylcellulose) (HPC)
[12] = dose: 100.0 mg/kg/injection, schedule: Q04DX002 (ip), vehicle: Klucel (hydroxypropylcellulose) (HPC)
[13] = dose: 200.0 mg/kg/injection, schedule: Q04DX002 (ip), vehicle: Klucel (hydroxypropylcellulose) (HPC)
[14] = dose: 400.0 mg/kg/injection, schedule: Q04DX002 (ip), vehicle: Klucel (hydroxypropylcellulose) (HPC)
[15] = dose: 50.0 mg/kg/injection, schedule: Q01DX001 (ip), vehicle: saline

Measured: T/C

CCC(=O)N(N=O)c1ccccc1
inactive: dose: 18.8 mg/kg/injection, schedule: Q01DX001 (ip), vehicle: saline 91 % of control

Nc1ccc2c(c1)Cc1cc(N)c(Br)cc1-2
inactive: [1] 105 % of control | [2] 109 % of control | [3] 94 % of control

Nc1nc(N)c(N=Nc2ccccc2S(=O)(=O)O)c(=O)[nH]1
inactive: [4] 97 % of control | [5] 97 % of control | dose: 50.0 mg/kg/injection, schedule: Q01DX009 (ip), vehicle: saline 100 % of control | dose: 50.0 mg/kg/injection, schedule: Q04DX003 (ip), vehicle: saline 101 % of control | [6] 96 % of control | [7] 98 % of control | [8] 104 % of control

OC1CC2CCC(C2)C1(O)c1ccccc1 (configuration not stated)
inactive: [9] 93 % of control | [10] 117 % of control | [11] 93 % of control

COC(=O)C1C(O)C(C)C(O)C(C)/C=C\C=C(C)C(=O)Nc2c(C)c(OC(C)=O)c3c(c2O)C(=O)C(C)=C2OCOC(=C23)C(C)=CC(C)(O)C(O)C(C)C1O (configuration not stated)
inactive: [12] 104 % of control | [13] 101 % of control | [14] 90 % of control

OCC(O)C(O)C(O)C(O)CNCC(O)C(O)C(O)C(O)CO (configuration not stated)
inactive: dose: 100.0 mg/kg/injection, schedule: Q04DX002 (ip), vehicle: saline 98 % of control and 91 % of control and 88 % of control | dose: 200.0 mg/kg/injection, schedule: Q04DX002 (ip), vehicle: saline 91 % of control and 100 % of control | dose: 400.0 mg/kg/injection, schedule: Q04DX002 (ip), vehicle: saline 91 % of control and 107 % of control and 95 % of control

ClCCOCCOc1ccc(Cl)cc1
inactive: dose: 100.0 mg/kg/injection, schedule: Q04DX003 (ip), vehicle: acetone 98 % of control | dose: 200.0 mg/kg/injection, schedule: Q04DX003 (ip), vehicle: acetone 98 % of control | dose: 400.0 mg/kg/injection, schedule: Q04DX003 (ip), vehicle: acetone 91 % of control

CCCCCC(C)NC(=O)NCCCl (configuration not stated)
inactive: [12] 89 % of control | [13] 92 % of control | [14] 87 % of control

O=C(Nc1ccc2c3c(ccc(NC(=O)c4ccccc4)c13)C=C2)c1ccccc1
inactive: [15] 102 % of control | [6] 100 % of control | [7] 100 % of control | [8] 100 % of control

O=C1c2ccccc2C(=O)c2c(Cl)ccc(O)c21
inactive: dose: 100.0 mg/kg/injection, schedule: Q01DX009 (ip), vehicle: Klucel (hydroxypropylcellulose) (HPC) 98 % of control | [9] 97 % of control | dose: 200.0 mg/kg/injection, schedule: Q01DX009 (ip), vehicle: Klucel (hydroxypropylcellulose) (HPC) 105 % of control | [10] 97 % of control | dose: 400.0 mg/kg/injection, schedule: Q01DX009 (ip), vehicle: Klucel (hydroxypropylcellulose) (HPC) 101 % of control | [11] 96 % of control

O=Cc1nccc2c1[nH]c1ccccc12
inactive: dose: 25.0 mg/kg/injection, schedule: Q01DX009 (ip), vehicle: saline with Tween-80 96 % of control | dose: 50.0 mg/kg/injection, schedule: Q01DX009 (ip), vehicle: saline with Tween-80 97 % of control | dose: 100.0 mg/kg/injection, schedule: Q01DX009 (ip), vehicle: saline with Tween-80 86 % of control and 90 % of control

NC(=S)N/N=C/c1cc(=O)[nH]c(=O)[nH]1
inactive: [15] 93 % of control | [6] 95 % of control | [7] 98 % of control | [8] 95 % of control

CCC(CC)CCCC(C)Nc1ccnc2cc(Cl)ccc12 (configuration not stated)
inactive: dose: 6.25 mg/kg/injection, schedule: Q01DX009 (ip), vehicle: saline 101 % of control | [4] 98 % of control | [5] 95 % of control

Oc1ccc(-c2cc(O)c(-c3ccc(O)cc3)cc2O)cc1
inactive: dose: 100.0 mg/kg/injection, schedule: Q01DX009 (ip), vehicle: saline 95 % of control

Nc1ncnc2nc(I)[nH]c12
inactive: [6] 93 % of control | [7] 98 % of control

O=C1c2cccnc2C(=O)c2c(O)ccc(O)c21
inactive: dose: 50.0 mg/kg/injection, schedule: Q01DX001 (ip), vehicle: carboxymethylcellulose (CMC) 100 % of control | [1] 108 % of control | [2] 100 % of control | [3] 108 % of control

Nc1cccc(C(=O)Nc2ccc(S(=O)(=O)F)cc2)c1
inactive: [6] 107 % of control | [7] 106 % of control | [8] 112 % of control

Cc1ccccc1NC(=O)Oc1ccc2ccccc2c1
inactive: [12] 106 % of control | [13] 103 % of control | [14] 106 % of control

CCCCCCCCCCCCCCCCCC1=NC(C)(CO)CO1 (configuration not stated)
inactive: [9] 102 % of control | [10] 96 % of control | [11] 107 % of control
